Assay results taken from patent US20240228458A1, “PYRIMIDINE DERIVATIVE HAVING PROTEIN KINASE INHIBITORY ACTIVITY, AND THERAPEUTIC PHARMACEUTICAL COMPOSITION COMPRISING SAME” (THERAPEX CO., LTD., priority 2021, published 2024).

Key:
Format in all cases: cell-based
[1] = tested on: Ba/F3 cells expressing EGFR-wt; assay: Growth inhibition (GI50) of Ba/F3 cells expressing EGFR-wt, Celltiter glo; settings: Mus musculus, BaF3, 72 h
Summary of the method: (§1)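 Ba/F3 cells carrying the given EGFR variant were seeded at 100,000 cells/ml and, 4 h later, treated with 10-point, 4-fold serial dilutions prepared from a 2 mM stock (0.5% DMSO final). After 72 h at 37 °C and 5% CO2, viable cells were quantified by CellTiter-Glo luminescence to derive GI50.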

[2] = tested on: Ba/F3 cells expressing del19/T790M/C797S (EGFR-DTC); assay: Growth inhibition (GI50) of Ba/F3 cells expressing del19/T790M/C797S (EGFR-DTC), Celltiter glo; settings: Mus musculus, BaF3, 72 h
Summary of the method: as §1

[3] = tested on: Ba/F3 cells expressing L858R/T790M/C797S (EGFR-LTC); assay: Growth inhibition (GI50) of Ba/F3 cells expressing L858R/T790M/C797S (EGFR-LTC), Celltiter glo; settings: Mus musculus, BaF3, 72 h
Summary of the method: as §1

[4] = tested on: Ba/F3 cells expressing del19/T790M (EGFR-DT); assay: Growth inhibition (GI50) of Ba/F3 cells expressing del19/T790M (EGFR-DT), Celltiter glo; settings: Mus musculus, BaF3, 72 h
Summary of the method: as §1

[5] = tested on: Ba/F3 cells expressing L858R/T790M (EGFR-LT); assay: Growth inhibition (GI50) of Ba/F3 cells expressing L858R/T790M (EGFR-LT), Celltiter glo; settings: Mus musculus, BaF3, 72 h
Summary of the method: as §1

parental Ba/F3 cell line = assay: Growth inhibition (GI50) of the parental Ba/F3 cell line (not introduced with EGFR variants), Celltiter glo; settings: Mus musculus, BaF3, 72 h, parental Ba/F3 cells
Summary of the method: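 Parental Ba/F3 cells (100,000 cells/ml) were treated with 10-point, 4-fold compound dilutions (0.5% DMSO; top stock 2 mM) for 72 h at 37 °C, 5% CO2. Viability was read by CellTiter-Glo; GI50 is the concentration (μM) giving 50% growth inhibition.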

Structure (SMILES) | GI50 [1] | GI50 [2] | GI50 [3] | GI50 [4] | GI50 [5] | GI50 (parental Ba/F3 cell line)
COc1ccc(NS(C)(=O)=O)c(Nc2nc(Nc3cc(Cl)c(N4CCC(N5CCCN(C)CC5)CC4)cc3OC)ncc2Cl)c1 [Example 229, N-(2-((5-chloro-2-((5-chloro-2-methoxy-4-(4-(4-methyl-1,4-diazepan-1-yl)piperidin-1-yl)phenyl)amino)pyrimidin-4-yl)amino)-4-methoxyphenyl)methanesulfonamide] | 500 to 2000 nM | 25 to 100 nM | 100 to 500 nM | 1 to 25 nM | 25 to 100 nM | 2000 to 10000 nM
COc1ccc(NS(C)(=O)=O)c(Nc2nc(Nc3cc(C)c(N4CCC(N5CCC(N(C)C)C5)CC4)cc3Cl)ncc2Cl)c1 (stereo not drawn) [Example 230, N-(2-((5-chloro-2-((2-chloro-4-(4-(3-(dimethylamino)pyrrolidin-1-yl)piperidin-1-yl)-5-methylphenyl)amino)pyrimidin-4-yl)amino)-4-methoxyphenyl)methanesulfonamide] | 500 to 2000 nM | 100 to 500 nM | 100 to 500 nM | 25 to 100 nM | 100 to 500 nM | 2000 to 10000 nM
COc1ccc(NS(C)(=O)=O)c(Nc2nc(Nc3ccc(N4CCC(N5CCN(C)CC5)CC4)cc3OC)ncc2Cl)c1 [Example 231, N-(2-((5-chloro-2-((2-methoxy-4-(4-(4-methylpiperazin-1-yl)piperidin-1-yl)phenyl)amino)pyrimidin-4-yl)amino)-4-methoxyphenyl)methanesulfonamide] | 2000 to 10000 nM | 100 to 500 nM | 100 to 500 nM | 100 to 500 nM | 100 to 500 nM | 2000 to 10000 nM
COc1ccc(NS(C)(=O)=O)c(Nc2nc(Nc3cc(C)c(N4CCC(N5CCCC(N(C)C)C5)CC4)cc3OC)ncc2Cl)c1 (stereo not drawn) [Example 232, N-(2-((5-chloro-2-((4-(3-(dimethylamino)-[1,4′-bipiperidin]-1′-yl)-2-methoxy-5-methylphenyl)amino)pyrimidin-4-yl)amino)-4-methoxyphenyl)methanesulfonamide] | 500 to 2000 nM | 25 to 100 nM | 100 to 500 nM | 25 to 100 nM | 100 to 500 nM | 2000 to 10000 nM

Second part, led by results:

GI50 [1] | GI50 [2] | GI50 [3] | GI50 [4] | GI50 [5] | Structure (SMILES) | GI50 (parental Ba/F3 cell line)
500 to 2000 nM | 25 to 100 nM | 25 to 100 nM | 25 to 100 nM | 25 to 100 nM | COc1ccc(NS(C)(=O)=O)c(Nc2nc(Nc3cc(C)c(N4CCC(N5CCN(C6CC6)CC5)CC4)cc3OC)ncc2Cl)c1 [Example 233, N-(2-((5-chloro-2-((4-(4-(4-cyclopropylpiperazin-1-yl)piperidin-1-yl)-2-methoxy-5-methylphenyl)amino)pyrimidin-4-yl)amino)-4-methoxyphenyl)methanesulfonamide] | 2000 to 10000 nM
2000 to 10000 nM | 100 to 500 nM | 100 to 500 nM | 100 to 500 nM | 100 to 500 nM | COc1ccc(NS(C)(=O)=O)c(Nc2nc(Nc3cc(C)c(N4CCC(N5CCC(C(F)(F)F)CC5)CC4)cc3OC)ncc2Cl)c1 [Example 234, N-(2-((5-chloro-2-((2-methoxy-5-methyl-4-(4-(trifluoromethyl)-[1,4′-bipiperidin]-1′-yl)phenyl)amino)pyrimidin-4-yl)amino)-4-methoxyphenyl)methanesulfonamide] | 2000 to 10000 nM
500 to 2000 nM | 25 to 100 nM | 100 to 500 nM | 25 to 100 nM | 100 to 500 nM | COc1ccc(NS(C)(=O)=O)c(Nc2nc(Nc3cc(C)c(N4CCC(N5CCC(N(C)C)C5)CC4)cc3OC)ncc2Cl)c1 (stereo not drawn) [Example 235, N-(2-((5-chloro-2-((4-(4-(3-(dimethylamino)pyrrolidin-1-yl)piperidin-1-yl)-2-methoxy-5-methylphenyl)amino)pyrimidin-4-yl)amino)-4-methoxyphenyl)methanesulfonamide] | 2000 to 10000 nM
